Results reported in patent US7495027B2, “3-aryl-4-hydroxyfuranone compounds and the human and animal health use thereof” (Wyeth, priority 2003, dated 2009).
pIC50: −log10 of the molar value. Converted amounts (≈) assume the structure as drawn. Read-outs that look alike come from different tables or passages of the source.

Tests used:
[1] = system: staphylococci; assay: Minimum inhibitory concentration, microdilution broth method, staphylococci; type: cell-based; conditions: Mueller-Hinton broth, 18-22 hours at 35° C.; for MIC: Staphylococcus aureus
In short: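 Strep: Mueller-Hinton + 5% horse blood (LHB). Enterococci, staph: Mueller-Hinton broth alone. Microdilution format per NCCLS M7-A5 2000; isolates include resistant clinical strains.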

[2] = biological target: E. coli Enopyruvyl-UPD-N-acetylglucosamine reductase, Mur B (Escherichia coli, UniProt P08373); assay: biochemical; conditions: (E) E. coli enzyme; for IC50: read-out: MurB IC50 (converted)
E. coli Enopyruvyl-UPD-N-acetylglucosamine reductase, Mur B, sequence (P08373 whole entry): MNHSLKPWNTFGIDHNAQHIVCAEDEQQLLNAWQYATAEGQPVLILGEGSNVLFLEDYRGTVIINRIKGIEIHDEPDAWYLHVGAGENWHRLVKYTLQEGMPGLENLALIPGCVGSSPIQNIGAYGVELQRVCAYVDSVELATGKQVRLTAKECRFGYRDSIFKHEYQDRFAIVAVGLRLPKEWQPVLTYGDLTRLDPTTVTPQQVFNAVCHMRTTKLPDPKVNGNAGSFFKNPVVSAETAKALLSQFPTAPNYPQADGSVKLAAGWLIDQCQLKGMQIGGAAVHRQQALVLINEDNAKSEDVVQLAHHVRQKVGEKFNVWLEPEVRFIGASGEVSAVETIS

[3] = biological target: T1, S. aureus Uridine-diphosphate-N-acetylmuramoyl-L-alanine: D-glutamate liease, MurD (Staphylococcus aureus, UniProt Q2FZ92); assay: biochemical; conditions: (S) S. aureus enzyme
T1 sequence (Q2FZ92 1-449): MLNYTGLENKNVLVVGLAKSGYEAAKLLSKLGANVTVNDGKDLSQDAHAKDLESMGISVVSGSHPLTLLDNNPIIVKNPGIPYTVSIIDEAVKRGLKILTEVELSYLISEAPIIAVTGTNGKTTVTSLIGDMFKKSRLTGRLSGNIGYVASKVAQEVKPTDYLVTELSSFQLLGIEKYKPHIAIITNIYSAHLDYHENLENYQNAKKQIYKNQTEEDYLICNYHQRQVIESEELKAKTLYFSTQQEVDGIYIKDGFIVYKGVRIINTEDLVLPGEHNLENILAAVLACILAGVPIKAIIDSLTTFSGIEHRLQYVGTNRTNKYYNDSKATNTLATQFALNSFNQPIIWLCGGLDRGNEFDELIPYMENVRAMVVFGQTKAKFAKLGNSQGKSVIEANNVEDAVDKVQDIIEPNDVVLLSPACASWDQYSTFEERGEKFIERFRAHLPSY
In short: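 Test solutions, 10 mg/mL stocks in DMSO, were brought to 100 μg/mL with 50 mM Tris/HCl (pH 8.5). Their inhibition of MurD, the enzyme of the fourth cell wall biosynthesis step, was measured.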

[4] = biological target: T2, S. aureus Uridine-diphosphate-N-acetvimuramoyl: L-alanine lipase, MurC (Staphylococcus aureus, UniProt Q2FXJ0); assay: biochemical; conditions: (S) S. aureus enzyme; for IC50: read-out: MurC IC50 (converted)
T2 sequence (Q2FXJ0 1-437): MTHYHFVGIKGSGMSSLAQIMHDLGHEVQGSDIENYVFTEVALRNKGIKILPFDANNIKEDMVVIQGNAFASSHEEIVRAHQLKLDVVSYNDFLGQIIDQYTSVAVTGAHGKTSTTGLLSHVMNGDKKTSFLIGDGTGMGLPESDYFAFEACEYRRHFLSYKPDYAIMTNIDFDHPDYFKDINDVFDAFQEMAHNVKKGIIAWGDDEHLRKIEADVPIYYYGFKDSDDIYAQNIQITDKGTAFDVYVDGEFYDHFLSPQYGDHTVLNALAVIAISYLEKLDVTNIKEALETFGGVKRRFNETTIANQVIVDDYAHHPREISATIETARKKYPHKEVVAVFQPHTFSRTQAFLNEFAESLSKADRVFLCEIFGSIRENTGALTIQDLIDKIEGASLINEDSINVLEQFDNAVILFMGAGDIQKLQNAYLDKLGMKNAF
Procedure: S. aureus and E. coli Uridine-diphosphate-N-acetvimuramoyl: L-alanine lipase, MurC
Preparation of Enzyme Solution:
A 1 mg/mL stock solution of MurC is prepared in a buffer consisting of 20 mM Tris/HCl (pH 8.5) with 2.5 μM BME. The stock solution is further diluted with the buffer to give a final enzyme concentration of 100 μg/mL for the E. coli stock solution and 70 μg/mL for the S. aureus stock solution.
Preparation of Test Compound Solutions:
All test solutions are prepared in DMSO as 10 mg/mL, then diluted with 50 mM Tris/HCl (pH 8.5) to 100 μg/mL.
Preparation of Stop Solution:
The stop solution is prepared by stirring 1 part 4.2% ammonium molydbate in 4N HCl with 2 parts 0.045% malachite green for 30 min.
In this evaluation, the inhibitory activity of a test compound against MurC, the enzyme which catalyzes the third step of bacterial cell wall bioxynthesis is determined. Experiments are performed by adding 2.5 μl buffer, 2.5 μl 0.5M NH4SO2, 5 μl 2 μM L-Ala, 5 μl enzyme solution and 6.5 μl test compound solution to each well in a 96-well microplate. After a pre-incubation period of 10 mins. at 23° C., 3.75 μl of a 0.75 μM solution of UDP-MurNac is added to each well. Following an incubation period of 10 mins. at 37° C., 210 μl stop solution and 50 μl of a 34% w/v sodium citrate solution are added and color is allowed to develop for 10 mins. at 23° C. (Lanzetta et al., Analytical Biochemistry, 1979, 95) Optical density readings are taken at 660 nm using a Molecular Devices Spectra Max 250 with Soft Max software. Controls are performed using the same procedure and omitting the addition of UDP-MurNac. […]
Using these values the IC50 is determined by linear regression analysis.

[5] = S. aureus GC 1131, read-out: MIC S. aureus GC 1131
[6] = S. aureus GC 4543, read-out: MIC S. aureus GC 4543

Compound	MIC S. aureus GC 1131 ([1]; S. aureus GC 1131) [µg/mL]	MIC S. aureus GC 4543 ([1]; S. aureus GC 4543) [µg/mL]	MurB IC50 [2]	MurD IC50 [3]	MurC IC50 [4]	MIC [1, 5] [µg/mL]	MIC [1, 6] [µg/mL]	pIC50 [3]	IC50 [4] [µM]	IC50 [2] [µM]
O=C1O/C(=C\c2ccc(-c3cccc(C(F)(F)F)c3)cc2)C(O)=C1c1cccc(C(F)(F)F)c1	4 (≈ 8.4 µM)	1 (≈ 2.1 µM)	4 (E) μg/mL	15 µg/mL	22 µg/mL					
O=C1O/C(=C\c2ccc(-c3cc(Cl)cc(Cl)c3)cc2)C(O)=C1c1cc(Cl)cc(Cl)c1			3 (E) μg/mL			4 (≈ 8.37 µM)	0.5 (≈ 1.05 µM)	< 4.28	48.1	
O=C1OC(=Cc2ccc(-c3ccccc3)cc2)C(O)=C1c1cccc(C(F)(F)F)c1 (mixture of isomers) [Example 11]	4	2	6 (E) μg/mL	11 µg/mL	5 µg/mL					
Cc1ccc(C=C2OC(=O)C(c3ccc(Cl)cc3)=C2O)s1 (mixture of isomers) [Example 13]	64	>128	12 (E) μg/mL	20 µg/mL	15 µg/mL					
O=C1OC(=Cc2cccc3ccccc23)C(O)=C1c1ccc(C=NO)cc1 (mixture of isomers) [Example 73]	>128	>128	> 25 µg/mL	>25 (E); >25 (S) μg/mL	23 µg/mL					
O=C1O/C(=C\c2ccc(-c3ccccc3)cc2)C(O)=C1c1cccc(C(F)(F)F)c1 [Example 10]						4 (≈ 9.79 µM)	2 (≈ 4.9 µM)	4.50	17.1	14.7
Cc1ccc(C=C2OC(=O)C(c3ccc(Cl)cc3)=C2O)s1 [Example 14]	>128	>128	>25 (E) μg/mL	>25 (E); >25 (S) μg/mL	22 µg/mL					
O=C1O/C(=C\C2CCCCC2)C(O)=C1c1ccc(Cl)cc1 [Example 15]						64 (≈ 210 µM)	64 (≈ 210 µM)	< 4.09	> 82	> 82
O=C1OC(=CC2CCCCC2)C(O)=C1c1cccc(C(F)(F)F)c1 [Example 16]	64 (≈ 189 µM)	>128	>25 (E) μg/mL	>25 (E); >25 (S) μg/mL	22 µg/mL					
O=C1O/C(=C\C2CCCCC2)C(O)=C1c1cccc(C(F)(F)F)c1 [Example 17]						32 (≈ 94.6 µM)	> 128	< 4.13	> 73.9	> 70.9
COc1cc(/C=C2\OC(=O)C(c3cccc(Cl)c3)=C2O)ccc1-c1ccccc1Cl [Example 18]						4 (≈ 9.11 µM)	4 (≈ 9.11 µM)	4.39	22.8	13.7
COc1ccccc1-c1ccc(/C=C2\OC(=O)C(c3cc(Cl)cc(Cl)c3)=C2O)cc1OC [Example 19]						2 (≈ 4.26 µM)	2 (≈ 4.26 µM)	4.44	40.5	42.6
COc1ccccc1-c1ccc(/C=C2\OC(=O)C(c3ccc(Cl)c(Cl)c3)=C2O)cc1OC [Example 20]						4 (≈ 8.52 µM)	4 (≈ 8.52 µM)	4.39	32	6.39
COc1cc(/C=C2\OC(=O)C(c3cc(Cl)cc(Cl)c3)=C2O)ccc1-c1ccccc1Cl [Example 21]						1 (≈ 2.11 µM)	0.5 (≈ 1.06 µM)	4.77	42.2	10.6
COc1cc(/C=C2\OC(=O)C(c3cccc(Cl)c3)=C2O)ccc1-c1ccccc1C [Example 22]						4 (≈ 9.55 µM)	4 (≈ 9.55 µM)	4.39	28.6	14.3
COc1ccccc1-c1ccc(/C=C2\OC(=O)C(c3cccc(Cl)c3)=C2O)cc1C [Example 23]						8 (≈ 19.1 µM)	4 (≈ 9.55 µM)	4.62	28.6	9.55
COc1ccccc1-c1ccc(/C=C2\OC(=O)C(c3cc(Cl)cc(Cl)c3)=C2O)cc1C [Example 24]						2 (≈ 4.41 µM)	1 (≈ 2.21 µM)	4.62	26.5	8.82
COc1cc(/C=C2\OC(=O)C(c3cc(Cl)cc(Cl)c3)=C2O)ccc1-c1ccccc1C [Example 25]						1 (≈ 2.21 µM)	0.5 (≈ 1.1 µM)	4.51	26.5	4.41
Cc1cc(/C=C2\OC(=O)C(c3cccc(Cl)c3)=C2O)ccc1-c1ccccc1C(F)(F)F [Example 26]						2 (≈ 4.38 µM)	1 (≈ 2.19 µM)	4.71	13.1	6.57
O=C1O/C(=C\c2ccc(N3CCOCC3)c(F)c2)C(O)=C1c1cc(Cl)cc(Cl)c1 [Example 34]	32 (≈ 73.3 µM)	32 (≈ 73.3 µM)		>25 (S) μg/mL	21 (S) μg/mL					
COc1ccc(C=C2OC(=O)C(c3cccc(Cl)c3)=C2O)c2ccccc12 [Example 35]	8 (≈ 21.1 µM)	8 (≈ 21.1 µM)		17 (S) μg/mL	8 (S) μg/mL					
COc1ccc(/C=C2\OC(=O)C(c3cc(Cl)cc(Cl)c3)=C2O)c2ccccc12 [Example 36]						4 (≈ 9.68 µM)	4 (≈ 9.68 µM)	4.66	12.1	
O=C1O/C(=C\c2ccc(N3CCOCC3)c3ccccc23)C(O)=C1c1cccc(Cl)c1 [Example 37]						16 (≈ 36.9 µM)	16 (≈ 36.9 µM)	4.36	23	
O=C1O/C(=C\c2ccc(N3CCOCC3)c3ccccc23)C(O)=C1c1cc(Cl)cc(Cl)c1 [Example 38]						8 (≈ 17.1 µM)	8 (≈ 17.1 µM)	4.89	14.9	
O=C1O/C(=C\c2cccc3ccccc23)C(O)=C1c1cccc2ccccc12 [Example 47]						16 (≈ 43.9 µM)	32 (≈ 87.8 µM)	< 4.16		63.1
O=C1O/C(=C\C2CCCCC2)C(O)=C1c1ccc(-c2ccccc2)cc1 [Example 100]						> 128	> 128	4.16	46.2	
Cc1ccc(/C=C2\OC(=O)C(c3ccc(-c4ccccc4)cc3)=C2O)s1 [Example 104]						16 (≈ 44.4 µM)	32 (≈ 88.8 µM)	< 4.16	52.7	
O=C1O/C(=C\c2ccc(-c3ccc(Cl)cc3)cc2)C(O)=C1c1ccc(Cl)cc1 [R=H, R1=4-Cl—C6H4, R2=4-(4′-Cl-biphenyl)]						16 (≈ 39.1 µM)	8 (≈ 19.5 µM)	4.71		7.33
